Measurements: PubChem BioAssay AID1963860 (Molecular Pharmacology Branch, DTP, NCI, 2024)

Test system: CN0375-F725-PDC KRAS spheroid viability
Test: Anticancer human tumor CN0375-F725-PDC patient-derived colon carcinoma cell line growth inhibition [KRAS2]
Conditions: spheroids with HUVEC and MSC; for IC50: curve of first compound; for viability, T/C: stronger effect = lower value
Outline: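 KRAS-mutant tumor cells were grown as spheroids with HUVEC endothelial cells and human MSCs as stroma. Targeted agents were tested alone and with KRAS pathway inhibitors. Doses started at or near clinical Cmax, or 10 microM, descending half-log.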

[1] = second compound 0.0316 µM, first compound 0.0316 µM
[2] = second compound 0.0316 µM, first compound 0.1 µM
[3] = second compound 0.0316 µM, first compound 0.316 µM
[4] = second compound 0.0316 µM, first compound 1 µM
[5] = second compound 0.0316 µM, first compound 3.16 µM
[6] = second compound 0.1 µM, first compound 0.0316 µM
[7] = second compound 0.1 µM, first compound 0.1 µM
[8] = second compound 0.1 µM, first compound 0.316 µM
[9] = second compound 0.1 µM, first compound 1 µM
[10] = second compound 0.1 µM, first compound 3.16 µM
[11] = second compound 0.316 µM, first compound 0.0316 µM
[12] = second compound 0.316 µM, first compound 0.1 µM
[13] = second compound 0.316 µM, first compound 0.316 µM
[14] = second compound 0.316 µM, first compound 1 µM
[15] = second compound 0.316 µM, first compound 3.16 µM
[16] = second compound 1 µM, first compound 0.0316 µM
[17] = second compound 1 µM, first compound 0.1 µM
[18] = second compound 1 µM, first compound 0.316 µM
[19] = second compound 1 µM, first compound 1 µM
[20] = second compound 1 µM, first compound 3.16 µM
[21] = second compound 3.16 µM, first compound 0.0316 µM
[22] = second compound 3.16 µM, first compound 0.1 µM
[23] = second compound 3.16 µM, first compound 0.316 µM
[24] = second compound 3.16 µM, first compound 1 µM
[25] = second compound 3.16 µM, first compound 3.16 µM
[26] = second compound 0.0316 µM, first compound 10 µM
[27] = second compound 0.1 µM, first compound 10 µM
[28] = second compound 0.316 µM, first compound 10 µM
[29] = second compound 1 µM, first compound 10 µM
[30] = second compound 3.16 µM, first compound 10 µM
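Note: spheroids exposed to agents for 7 days.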

## CC1COCCN1c1cc(-c2ccnn2C)c2ccnc(-c3ccn[nH]3)c2n1 (stereo not given) + C=CC(=O)N1CCN(c2nc(OCC3CCCN3C)nc3c2CCN(c2cccc4cccc(C)c24)C3)CC1CC#N
Second compound 0.0316 µM
  IC50: > 3.16 µM
Second compound 0.1 µM
  IC50: > 3.16 µM
Second compound 0.316 µM
  IC50: > 3.16 µM
Second compound 1 µM
  IC50: > 3.16 µM
Second compound 3.16 µM
  IC50: < 0.01 µM
Second compound 0.0316 µM, first compound 0.01 µM
  viability, T/C: 109%
[1]
  viability, T/C: 94.6%
[2]
  viability, T/C: 84.8%
[3]
  viability, T/C: 84.6%
[4]
  viability, T/C: 68.4%
[5]
  viability, T/C: 57.2%
Second compound 0.1 µM, first compound 0.01 µM
  viability, T/C: 99.8%
[6]
  viability, T/C: 98.4%
[7]
  viability, T/C: 81.4%
[8]
  viability, T/C: 79.3%
[9]
  viability, T/C: 65.7%
[10]
  viability, T/C: 53.4%
Second compound 0.316 µM, first compound 0.01 µM
  viability, T/C: 98%
[11]
  viability, T/C: 93.4%
[12]
  viability, T/C: 84.6%
[13]
  viability, T/C: 78.5%
[14]
  viability, T/C: 65.2%
[15]
  viability, T/C: 55.6%
Second compound 1 µM, first compound 0.01 µM
  viability, T/C: 88.1%
[16]
  viability, T/C: 88.3%
[17]
  viability, T/C: 75.1%
[18]
  viability, T/C: 71%
[19]
  viability, T/C: 66.5%
[20]
  viability, T/C: 51%
Second compound 3.16 µM, first compound 0.01 µM
  viability, T/C: 36.8%
[21]
  viability, T/C: 35.9%
[22]
  viability, T/C: 24.4%
[23]
  viability, T/C: 25%
[24]
  viability, T/C: 17.5%
[25]
  viability, T/C: 20.5%

## CC1OCC2(CCN(c3cnc(Sc4ccnc(N)c4Cl)c(N)n3)CC2)C1N (stereo not given) + C=CC(=O)N1CCN(c2nc(OCC3CCCN3C)nc3c2CCN(c2cccc4cccc(C)c24)C3)CC1CC#N
Second compound 0.0316 µM
  IC50: > 10 µM
Second compound 0.1 µM
  IC50: > 10 µM
Second compound 0.316 µM
  IC50: > 10 µM
Second compound 1 µM
  IC50: 8.24 µM
Second compound 3.16 µM
  IC50: < 0.0316 µM
[1]
  viability, T/C: 99.2%
[2]
  viability, T/C: 90.6%
[3]
  viability, T/C: 77.1%
[4]
  viability, T/C: 81.9%
[5]
  viability, T/C: 79.7%
[26]
  viability, T/C: 63.7%
[6]
  viability, T/C: 102%
[7]
  viability, T/C: 90.9%
[8]
  viability, T/C: 77.7%
[9]
  viability, T/C: 80%
[10]
  viability, T/C: 74.4%
[27]
  viability, T/C: 62.9%
[11]
  viability, T/C: 102%
[12]
  viability, T/C: 89.9%
[13]
  viability, T/C: 81.8%
[14]
  viability, T/C: 78.3%
[15]
  viability, T/C: 71.4%
[28]
  viability, T/C: 60.4%
[16]
  viability, T/C: 83.2%
[17]
  viability, T/C: 86%
[18]
  viability, T/C: 73.5%
[19]
  viability, T/C: 61.8%
[20]
  viability, T/C: 64.2%
[29]
  viability, T/C: 46.5%
[21]
  viability, T/C: 30.2%
[22]
  viability, T/C: 18.2%
[23]
  viability, T/C: 14.2%
[24]
  viability, T/C: 13%
[25]
  viability, T/C: 13.2%
[30]
  viability, T/C: 9.43%

## CCNC(=O)CC1N=C(c2ccc(Cl)cc2)c2cc(OC)ccc2-n2c(C)nnc21 (stereo not given) + C=CC(=O)N1CCN(c2nc(OCC3CCCN3C)nc3c2CCN(c2cccc4cccc(C)c24)C3)CC1CC#N
Second compound 0.0316 µM
  IC50: > 10 µM
Second compound 0.1 µM
  IC50: > 10 µM
Second compound 0.316 µM
  IC50: > 10 µM
Second compound 1 µM
  IC50: 6.11 µM
Second compound 3.16 µM
  IC50: < 0.0316 µM
[1]
  viability, T/C: 97.8%
[2]
  viability, T/C: 96.6%
[3]
  viability, T/C: 83.2%
[4]
  viability, T/C: 83%
[5]
  viability, T/C: 69.3%
[26]
  viability, T/C: 54%
[6]
  viability, T/C: 101%
[7]
  viability, T/C: 92.8%
[8]
  viability, T/C: 81.4%
[9]
  viability, T/C: 78.6%
[10]
  viability, T/C: 67.2%
[27]
  viability, T/C: 53.2%
[11]
  viability, T/C: 97.1%
[12]
  viability, T/C: 88.6%
[13]
  viability, T/C: 77.8%
[14]
  viability, T/C: 75.1%
[15]
  viability, T/C: 68.4%
[28]
  viability, T/C: 53.8%
[16]
  viability, T/C: 88.1%
[17]
  viability, T/C: 85.6%
[18]
  viability, T/C: 73.3%
[19]
  viability, T/C: 65.6%
[20]
  viability, T/C: 60.1%
[29]
  viability, T/C: 43.4%
[21]
  viability, T/C: 30.2%
[22]
  viability, T/C: 28%
[23]
  viability, T/C: 15.5%
[24]
  viability, T/C: 1.05%
[25]
  viability, T/C: 13.8%
[30]
  viability, T/C: 6.65%

## Cn1nccc1Nc1nccc(-c2cc3c(s2)C(C)(C)N(CCN2CCOCC2)C3=O)n1 + C=CC(=O)N1CCN(c2nc(OCC3CCCN3C)nc3c2CCN(c2cccc4cccc(C)c24)C3)CC1CC#N
Second compound 0.0316 µM
  IC50: 3.93 µM
Second compound 0.1 µM
  IC50: 2.98 µM
Second compound 0.316 µM
  IC50: 2.23 µM
Second compound 1 µM
  IC50: 0.739 µM
Second compound 3.16 µM
  IC50: < 0.0316 µM
[1]
  viability, T/C: 100%
[2]
  viability, T/C: 97.3%
[3]
  viability, T/C: 76.9%
[4]
  viability, T/C: 68.9%
[5]
  viability, T/C: 52.7%
[26]
  viability, T/C: 39%
[6]
  viability, T/C: 95.7%
[7]
  viability, T/C: 93.4%
[8]
  viability, T/C: 77.2%
[9]
  viability, T/C: 63.4%
[10]
  viability, T/C: 50.4%
[27]
  viability, T/C: 39.7%
[11]
  viability, T/C: 91.5%
[12]
  viability, T/C: 91.3%
[13]
  viability, T/C: 70.3%
[14]
  viability, T/C: 60.3%
[15]
  viability, T/C: 46.9%
[28]
  viability, T/C: 38%
[16]
  viability, T/C: 87.6%
[17]
  viability, T/C: 82.8%
[18]
  viability, T/C: 52.4%
[19]
  viability, T/C: 47%
[20]
  viability, T/C: 39.1%
[29]
  viability, T/C: 23.1%
[21]
  viability, T/C: 27.7%
[22]
  viability, T/C: 24.3%
[23]
  viability, T/C: 11.9%
[24]
  viability, T/C: 7.82%
[25]
  viability, T/C: 5.81%
[30]
  viability, T/C: 2.15%
